# Test results: patent US20170157103A1, “METHODS OF TREATING DIFFUSE LARGE B-CELL LYMPHOMA USING 3-(4-AMINO-1-OXOISOINDOLIN-2-YL)PIPERIDINE-2,6-DIONE” (Celgene Corporation, priority 2015, published 2017)
# How the values were obtained:
# [1] = system: relapsed or refractory diffuse large B-cell lymphoma; assay: Clinical trial of lenalidomide vs control in relapsed or refractory DLBCL patients, subtype determined by Affymetrix; format: in vivo, human; settings: for Median overall survival / Median progression free survival: relapsed or refractory DLBCL patients
# Description: DLBCL lymph-node biopsies were either snap frozen or formalin fixed and paraffin embedded similarly to that described by Scott et al., Blood 2014 123(8) 1214-1217, the disclosure of which is incorporated herein in its entirety. Messenger RNA was purified and reverse transcribed into cDNA.
# DNA microarray analysis of gene expression was done essentially as described below. The cDNA clones on the Lymphochip microarray are available from Research Genetics. Fluorescent images of hybridized microarrays were obtained using a GenePix 4000 microarray scanner (Axon Instruments). Images were analysed with ScanAlyze (M. Eisen; http://www.microarrays.org/software), and fluorescence ratios (along with numerous quality control parameters; see ScanAlyze manual) were stored in a custom database. Single spots or areas of the array with obvious blemishes were flagged and excluded from subsequent analyses. Fluorescence ratios were calibrated independently for each array by applying a single scaling factor to all fluorescent ratios from each array; this scaling factor was computed so that the median fluorescence ratio of well-measured spots on each array was 1.0.
# All cDNA microarray analyses were performed using poly-(A)^+ mRNA (Fast Track, Invitrogen). In each experiment, fluorescent cDNA probes were prepared from an experimental mRNA sample (Cy5-labelled) and a control mRNA sample (Cy3-labelled) isolated from a pool of nine lymphoma cell lines (Raji, Jurkat, L428, OCI-Ly3, OCI-Ly8, OCI-Lyl, SUDHL5, SUDHL6 and WSU1). The use of a common control cDNA probe allows the relative expression of each gene to be compared across all samples.
# All non-flagged array elements for which the fluorescent intensity in each channel was greater than 1.4 times the local background were considered well measured. The ratio values were log-transformed (base 2) and stored in a table (rows, individual cDNA clones; columns, single mRNA samples). Data for the genes were centered by subtracting (in log space) the median observed value, to remove any effect of the amount of RNA in the reference pool. This dataset contains 4,026 array elements. Hierarchical clustering was applied to both axes using the weighted pair-group method with centroid average as implemented in the program Cluster (M. Eisen; http://www.microarrays.org/software). The distance matrixes used were Pearson correlation for clustering the arrays and the inner product of vectors normalized to magnitude 1 for the genes. The results were analysed with Tree View (M. Eisen; http://www.microarrays.org/software).
# (§1) This clinical benefit is observed when subtype is determined by the Affymetrix test (FIG. 1) or by the NanoString test (FIG. 2).
# [2] = system: relapsed or refractory diffuse large B-cell lymphoma; assay: Clinical trial of lenalidomide vs control in relapsed or refractory DLBCL patients, subtype determined by NanoString; format: in vivo, human; settings: for Median overall survival / Median progression free survival: relapsed or refractory DLBCL patients
# Description: DLBCL lymph-node biopsies were formalin fixed and paraffin embedded (FFPE) similarly to that described in Scott et al., Blood 2014 123(8) 1214-1217, the disclosure of which is incorporated by reference herein. Nucleic acids obtained from the tissues were extracted using the QIAGEN AllPrep DNA/RNA FFPE Kit, with deparaffinization achieved using the QIAGEN Deparaffinization Solution, according to the manufacturer's instructions. The RNA was quantitated using spectrophotometry (NanoDrop, Thermo Science, DE). Gene expression on approximately 200 nanograms of RNA was used to determine gene expression levels by means of NanoString technology (NanoString Technologies, WA). The total RNA was hybridized to the custom codesets at 65° C. overnight. The reaction was processed on the nCounter™ Prep Station and gene expression data was then acquired on the nCounter™ Digital Analyzer.
# as §1
# [3] = ABC plus unclassified subtype (by Affymetrix)
# [4] = ABC plus unclassified subtype (by Nanostring)
compound,measurement,setting,value
"Nc1cccc2c1CN(C1CCC(=O)NC1=O)C2=O (centres unmarked) [lenalidomide, 3-(4-amino-1-oxoisoindolin-2-yl)piperidine-2,6-dione]",Clinical benefit compared to control as measured by progression free survival,"[1]; ABC DLBCL subtype patients and unclassifiable patients, subtype by Affymetrix test (FIG. 1)",benefit
same,Median overall survival,[1]; [3],16.3/33^ weeks
same,Median progression free survival,[1]; [3],6.3/9.1 weeks
same,Median overall survival,[1]; ABC subtype (by Affymetrix),18.6/108.4 weeks
same,Median progression free survival,[1]; ABC subtype (by Affymetrix),6.2/82 weeks
same,Median overall survival,[1]; GBC subtype (by Affymetrix),20/30 weeks
same,Median progression free survival,[1]; GBC subtype (by Affymetrix),7.1/13.2 weeks
same,Clinical benefit compared to control as measured by progression free survival,"[2]; ABC DLBCL subtype patients and unclassifiable patients, subtype by NanoString test (FIG. 2)",benefit
same,Median overall survival,[2]; [4],36.9/108.4 weeks
same,Median progression free survival,[2]; [4],6.6/82 weeks
same,Median overall survival,[2]; ABC subtype (by Nanostring),37/43.7 weeks
same,Median progression free survival,[2]; ABC subtype (by Nanostring),6/27 weeks
same,Median overall survival,[2]; GBC subtype (by Nanostring),34.9/18 weeks
same,Median progression free survival,[2]; GBC subtype (by Nanostring),9/8.7 weeks
